Data reported in US20090325959A1 (priority 2008, published 2009).
Like-named read-outs stand apart in the source and are kept apart here.

Key:
[1] = molecular target: T1, ROCK1 (Homo sapiens, UniProt Q13464); assay: Rho kinase inhibition assay (IMAP fluorescence polarization), ROCK1; type: biochemical;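 also: kinase reaction run 60 min at room temperature, then phosphorylated substrate captured on IMAP beads for 30 min, with fluorescence polarization read in mP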
T1 construct: purchased Upstate/Chemicon 14-601
Protocol: (§1) Following the pre-incubation, 10 μM ATP was added to initiate the reaction. After 60 minutes at room temperature, Molecular Devices IMAP™ binding solution was added to bind phosphorylated substrate. After 30 minutes of incubation in the presence of the IMAP™ beads, the fluorescence polarization was read and the ratio was reported as mP. IC50 values for compounds and EC50 values for ATP were calculated using the Prism software from Graphpad.

[2] = molecular target: T2, ROCK2 (Homo sapiens, UniProt O75116); assay: Rho kinase inhibition assay (IMAP fluorescence polarization), ROCK2; type: biochemical;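 also: kinase reaction started with 10 µM ATP and run 60 min at room temperature, then phosphorylated substrate captured on IMAP beads for 30 min and fluorescence polarization read in mP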
T2 construct: purchased Upstate/Chemicon 14-451
Protocol: as §1

[3] = molecular target: T3, Akt3 human enzyme (Homo sapiens, UniProt Q9Y243); assay: Akt3 inhibition assay (IMAP FP); type: biochemical;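 also: kinase reaction run 60 min at room temperature after 30 µM ATP start, phosphorylated substrate captured on IMAP beads and read as fluorescence polarization (mP)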
T3 construct: purchased Upstate Chemicon 14-502

[4] = molecular target: T4, p70S6K human enzyme (Homo sapiens, UniProt P23443, T412E); assay: p70S6K inhibition assay (IMAP FP); type: biochemical;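 also: kinase reaction run at room temperature, phosphorylated substrate captured on IMAP beads and read as fluorescence polarization in mP, IC50 then converted to Ki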
T4 construct: purchased Upstate Chemicon 14-486

[5] = Compound plasma concentrations in unsensitized mice at 15 min post administration; type: in vivo; settings: mouse, 15 μmol/kg; mean compound plasma concentration in mice at 15 minutes post oral administration; read-out: Mouse Oral PK
Protocol: Additionally, compound concentrations were determined in the plasma and lungs of male, ovalbumin-sensitized, Balb/c mice from a murine model of asthma. Test compounds were formulated in water or 1% polysorbate 80 and dosed at 15 μmol/kg for intraperitoneal (IP) or oral (PO) administration or formulated for intratracheal (IT) administration and dosed at 5 μmol/kg, which directly targets the lungs. Following completion of the in vivo study, mice were euthanized and blood and plasma collected approximately 2.5-3 hours post administration of test compound for bronchodialator (BD) studies and 24 hours post administration for anti-inflamatory (AI) studies. Lungs were homogenized in Matrix A lysing tubes using a FastPrep 24 tissue and cell homogenizer (MP Biomedicals, Solon, Ohio). Both plasma samples and lung extracts were assayed for compound concentrations using an on-line, solid phase extraction LC/MS/MS system.

[6] = 10 μM ATP, read-out: ROCK2 Ki, Avg
[7] = 30 μM ATP, Ki=IC50/(1+([ATP Challenge]/EC50 ATP)), read-out: Akt3 Ki, Avg
[8] = 30 μM ATP, Ki=IC50/(1+([ATP Challenge]/EC50 ATP)), read-out: p70S6K Ki, Avg
[9] = average Ki, read-out: p70S6K Ki

T1 sequence (Q13464 17-535 limits assumed): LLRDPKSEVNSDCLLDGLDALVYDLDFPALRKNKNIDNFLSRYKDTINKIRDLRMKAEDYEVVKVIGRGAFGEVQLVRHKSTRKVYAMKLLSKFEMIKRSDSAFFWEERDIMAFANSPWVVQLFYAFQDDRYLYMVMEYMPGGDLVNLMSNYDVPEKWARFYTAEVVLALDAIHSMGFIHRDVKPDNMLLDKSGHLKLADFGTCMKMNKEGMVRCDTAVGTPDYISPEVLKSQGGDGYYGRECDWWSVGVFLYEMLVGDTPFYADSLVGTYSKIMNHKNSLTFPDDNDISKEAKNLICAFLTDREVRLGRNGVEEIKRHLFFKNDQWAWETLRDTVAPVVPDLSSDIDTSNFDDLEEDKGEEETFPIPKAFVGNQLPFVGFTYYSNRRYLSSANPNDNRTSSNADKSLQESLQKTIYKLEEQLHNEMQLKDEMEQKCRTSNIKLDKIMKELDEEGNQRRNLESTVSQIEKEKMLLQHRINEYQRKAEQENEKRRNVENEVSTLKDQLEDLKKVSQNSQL
T3 sequence (Q9Y243 whole entry): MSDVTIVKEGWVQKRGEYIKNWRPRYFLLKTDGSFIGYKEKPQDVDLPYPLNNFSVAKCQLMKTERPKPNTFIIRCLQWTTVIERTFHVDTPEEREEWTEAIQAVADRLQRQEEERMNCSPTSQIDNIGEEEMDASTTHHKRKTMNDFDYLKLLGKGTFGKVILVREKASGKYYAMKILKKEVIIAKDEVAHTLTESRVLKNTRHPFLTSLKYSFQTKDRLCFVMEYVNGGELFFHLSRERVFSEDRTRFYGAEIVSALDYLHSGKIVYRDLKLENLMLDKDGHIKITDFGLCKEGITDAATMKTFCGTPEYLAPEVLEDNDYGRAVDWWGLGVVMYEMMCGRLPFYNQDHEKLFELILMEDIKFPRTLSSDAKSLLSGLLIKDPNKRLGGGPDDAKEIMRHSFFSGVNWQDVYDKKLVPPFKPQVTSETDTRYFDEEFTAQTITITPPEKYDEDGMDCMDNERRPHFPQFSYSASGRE
T4 sequence (P23443 1-421 T412E limits assumed): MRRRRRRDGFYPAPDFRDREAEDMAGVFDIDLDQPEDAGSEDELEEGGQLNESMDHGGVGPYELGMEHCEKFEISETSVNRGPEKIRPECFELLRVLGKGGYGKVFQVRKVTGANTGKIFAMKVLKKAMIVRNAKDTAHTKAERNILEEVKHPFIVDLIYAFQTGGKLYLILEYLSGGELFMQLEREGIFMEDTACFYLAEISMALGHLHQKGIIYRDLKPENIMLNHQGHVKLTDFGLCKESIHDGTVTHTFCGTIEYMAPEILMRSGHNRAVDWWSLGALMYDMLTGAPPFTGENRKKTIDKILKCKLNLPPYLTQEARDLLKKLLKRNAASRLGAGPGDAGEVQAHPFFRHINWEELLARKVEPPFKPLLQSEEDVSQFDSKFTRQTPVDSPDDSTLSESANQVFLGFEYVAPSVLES
T2 sequence (O75116 11-552 limits assumed): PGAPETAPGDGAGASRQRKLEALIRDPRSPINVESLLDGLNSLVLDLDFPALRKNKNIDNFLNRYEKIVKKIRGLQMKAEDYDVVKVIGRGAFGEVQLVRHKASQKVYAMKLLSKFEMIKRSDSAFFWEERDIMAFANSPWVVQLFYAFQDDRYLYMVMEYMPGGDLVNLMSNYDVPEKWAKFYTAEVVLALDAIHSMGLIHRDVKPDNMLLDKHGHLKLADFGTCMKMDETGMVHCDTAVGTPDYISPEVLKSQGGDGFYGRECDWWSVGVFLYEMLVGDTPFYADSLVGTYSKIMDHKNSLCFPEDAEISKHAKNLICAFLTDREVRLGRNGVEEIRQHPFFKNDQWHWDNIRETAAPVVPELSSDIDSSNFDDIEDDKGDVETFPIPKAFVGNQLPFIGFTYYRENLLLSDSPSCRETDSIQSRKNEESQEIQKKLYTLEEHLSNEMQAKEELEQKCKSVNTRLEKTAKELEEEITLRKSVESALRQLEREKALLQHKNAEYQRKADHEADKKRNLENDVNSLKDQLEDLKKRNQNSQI

SMILES | Ki ([1]; Avg, 10 μM ATP) | Ki ([1]; average Ki) | Ki [2, 6] | Ki ([2]; average Ki, read-out: ROCK2 Ki) | Ki [3, 7] | Ki ([3]; average Ki, read-out: Akt3 Ki) | Ki [4, 8] | Ki [4, 9] | concentration at 15 min [5]
c1cc2c(cc1CN1CCC[C@H](Nc3ccc4[nH]ncc4c3)C1)OCCO2 [Compound 1.166, (S)-N-(1-((2,3-dihydrobenzo[b][1,4]dioxin-6-yl)methyl)piperidin-3-yl)-1H-indazol-5-amine] | 0.0952 µM | 0.0952 µM | 0.008 µM | 0.008 µM | 18.1 µM | 18.1 µM | 5.16 µM | 5.16 µM | 342 nM
OCCn1ccc2ccc(CN3CCC[C@H](Nc4ccc5[nH]ncc5c4)C3)cc21 [Compound 1.109, (S)-2-(6-((3-(1H-indazol-5-ylamino)piperidin-1-yl)methyl)-1H-indol-1-yl)ethanol] | 0.0588 µM | 0.0588 µM | 0.0096 µM | 0.0096 µM | 5.19 µM | 5.19 µM | 2.5 µM | 2.5 µM | 187 nM
Cc1ccc(CN2CCC[C@H](Nc3ccc4[nH]ncc4c3)C2)cc1OCCO [Compound 1.152, (S)-2-(5-((3-(1H-indazol-5-ylamino)piperidin-1-yl)methyl)-2-methylphenoxy)ethanol] | 0.0198 µM | 0.0198 µM | 0.0033 µM | 0.0033 µM | 1.98 µM | 1.98 µM | 0.523 µM | 0.523 µM | 435 nM
c1cc(CN2CCC[C@H](Nc3ccc4[nH]ncc4c3)C2)cc(C2CC2)c1 [Compound 1.186, (S)-N-(1-(3-cyclopropylbenzyl)piperidin-3-yl)-1H-indazol-5-amine] | 0.129 µM | 0.129 µM | 0.0119 µM | 0.0119 µM | 10.2 µM | 10.2 µM | 1.61 µM | 1.61 µM | 2170 nM
c1ccc2c(CN3CCC[C@@H](Nc4ccc5[nH]ncc5c4)C3)c[nH]c2c1 [Compound 1.252, (R)-N-(1-((1H-indol-3-yl)methyl)piperidin-3-yl)-1H-indazol-5-amine] | 0.0305 µM | 0.0305 µM | 0.0045 µM | 0.0045 µM | 0.205 µM | 0.205 µM | 0.171 µM | 0.171 µM | 1260 nM
OCc1ccc(CN2CCC[C@H](Nc3ccc4[nH]ncc4c3)C2)cc1 [Compound 1.223, (S)-(4-((3-(1H-indazol-5-ylamino)piperidin-1-yl)methyl)phenyl)methanol] | 0.239 µM | 0.239 µM | 0.0157 µM | 0.0157 µM | 11.1 µM | 11.1 µM | 3.1 µM | 3.1 µM | 13 nM
Cc1ccc(CN2CCC[C@H](Nc3ccc4[nH]ncc4c3)C2)cc1NS(C)(=O)=O [Compound 1.233, (S)-N-(5-((3-(1H-indazol-5-ylamino)piperidin-1-yl)methyl)-2-methylphenyl)methanesulfonamide] | 0.0472 µM | 0.0472 µM | 0.0013 µM | 0.0013 µM | 2.63 µM | 2.63 µM | 2 µM | 2 µM | 41 nM
NC(=O)c1cccc(CN2CCC[C@H](Nc3ccc4[nH]ncc4c3)C2)c1 [Compound 1.219, (8)-3-((3-(1H-indazol-5-ylamino)piperidin-1-yl)methyl)benzamide] | 0.344 µM | 0.344 µM | 0.0154 µM | 0.0154 µM | 38.3 µM | 38.3 µM | 4.97 µM | 4.97 µM | 1680 nM
